Reference: patent publication US12180192B2, “Modulators of THR-β and methods of use thereof” (ALIGOS THERAPEUTICS, INC., priority 2019, dated 2024)

What was measured:
THR beta = biological target: T1, THR beta (Homo sapiens, UniProt P10828); experiment: HEK293T THR beta/RXR luciferase reporter assay (Assay 2); type: cell-based; settings: for Emax: HEK-293T, Table 5, Assay 2, THRβ, read-out: Activity category Assay 2 THRβ (Emax); for EC50: THR-beta, HEK293T reporter assay, read-out: Activity category Assay 2 (EC50, THR-beta agonist)
T1 construct: expressed in transfected cells; host or cells: HEK293T (ATCC CRL-3216)
T1 sequence (P10828 1-461): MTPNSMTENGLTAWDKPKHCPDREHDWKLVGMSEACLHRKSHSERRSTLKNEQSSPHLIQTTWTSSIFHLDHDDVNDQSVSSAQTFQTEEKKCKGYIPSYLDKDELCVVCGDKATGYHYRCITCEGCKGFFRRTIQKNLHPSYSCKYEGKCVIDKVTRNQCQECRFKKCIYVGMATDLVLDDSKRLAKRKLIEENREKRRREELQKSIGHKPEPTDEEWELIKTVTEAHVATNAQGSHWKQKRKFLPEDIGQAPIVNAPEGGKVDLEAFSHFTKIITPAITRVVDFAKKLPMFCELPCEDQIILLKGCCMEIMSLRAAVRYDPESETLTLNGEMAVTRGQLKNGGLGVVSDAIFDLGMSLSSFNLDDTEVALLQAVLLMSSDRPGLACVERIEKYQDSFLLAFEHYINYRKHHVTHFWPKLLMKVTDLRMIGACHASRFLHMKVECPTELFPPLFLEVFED
T1 sequence (P19793 1-462 partner): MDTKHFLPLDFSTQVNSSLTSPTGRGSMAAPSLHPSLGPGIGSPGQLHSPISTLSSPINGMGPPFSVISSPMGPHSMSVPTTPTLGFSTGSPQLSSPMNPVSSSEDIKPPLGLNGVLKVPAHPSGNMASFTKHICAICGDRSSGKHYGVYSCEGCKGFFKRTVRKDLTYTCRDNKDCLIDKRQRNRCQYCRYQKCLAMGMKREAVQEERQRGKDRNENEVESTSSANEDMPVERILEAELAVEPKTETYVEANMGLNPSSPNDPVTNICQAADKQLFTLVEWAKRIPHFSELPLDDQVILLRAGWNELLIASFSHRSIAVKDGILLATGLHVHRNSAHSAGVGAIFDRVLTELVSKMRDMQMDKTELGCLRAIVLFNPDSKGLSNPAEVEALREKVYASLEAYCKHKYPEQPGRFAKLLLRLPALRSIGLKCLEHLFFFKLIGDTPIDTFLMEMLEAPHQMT
Procedure, shortened: (§1)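 HEK293T cells transiently transfected with TRE-luciferase reporter, RXR, and THR alpha or THR beta plasmid; ten five-fold compound dilutions from DMSO added for 18-24 h. One-Glo luminescence read; percent agonism normalized between negative and positive controls.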

[1] = biological target: T2, human thyroid receptor beta ligand-binding domain (LBD) (Homo sapiens, UniProt P10828); experiment: TR-FRET thyroid receptor beta coactivator assay (THR biochemical assay, Assay 1); settings: for EC50: THR-beta, TR-FRET coactivator assay, read-out: Activity category Assay 1 (EC50, THR-beta agonist); for Emax: Table 5, Assay 1, THRβ, read-out: Activity category Assay 1 THRβ (Emax)
T2 construct: purchased Invitrogen
T2 sequence (P10828 217-461 limits assumed): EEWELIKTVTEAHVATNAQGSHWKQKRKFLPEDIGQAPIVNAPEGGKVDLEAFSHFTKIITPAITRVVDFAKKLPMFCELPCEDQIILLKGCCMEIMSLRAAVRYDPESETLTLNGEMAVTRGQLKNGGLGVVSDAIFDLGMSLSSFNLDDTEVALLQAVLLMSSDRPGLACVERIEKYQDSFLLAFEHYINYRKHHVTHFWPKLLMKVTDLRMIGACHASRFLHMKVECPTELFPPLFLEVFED
Procedure, shortened: (§2)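 GST-tagged human TRβ or TRα LBD, 1 nM final (stated for β), with fluorescein-SRC2-2 coactivator peptide (200 nM) and Tb-anti-GST antibody (2 nM). Agonists serially diluted, 1% DMSO final. 1 h incubation at rt in the dark; TR-FRET read as rise in fluorescein and drop in terbium emission.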

[2] = biological target: T3, human thyroid receptor alpha ligand-binding domain (LBD) (Homo sapiens, UniProt P10827); experiment: TR-FRET thyroid receptor alpha coactivator assay (THR biochemical assay, Assay 1); settings: for EC50: Table 4, THR-alpha, read-out: Activity category Assay 1 (EC50, THR-alpha agonist activity); for Emax: Table 5, THRα, read-out: Activity category Assay 1 THRα (Emax)
T3 construct: purchased Invitrogen
Procedure, shortened: as §2

THR alpha = biological target: T4, THR alpha (Homo sapiens, UniProt P10827); experiment: HEK293T THR alpha/RXR luciferase reporter assay (Assay 2); type: cell-based; settings: Assay 2; for Emax: HEK-293T, Table 5, THRα, read-out: Activity category Assay 2 THRα (Emax); for EC50: Table 4, THR-alpha, read-out: Activity category Assay 2 (EC50, THR-alpha agonist activity)
T4 construct: expressed in transfected cells; host or cells: HEK293T (ATCC CRL-3216)
T4 sequence (P10827 1-410 isoform P10827-2): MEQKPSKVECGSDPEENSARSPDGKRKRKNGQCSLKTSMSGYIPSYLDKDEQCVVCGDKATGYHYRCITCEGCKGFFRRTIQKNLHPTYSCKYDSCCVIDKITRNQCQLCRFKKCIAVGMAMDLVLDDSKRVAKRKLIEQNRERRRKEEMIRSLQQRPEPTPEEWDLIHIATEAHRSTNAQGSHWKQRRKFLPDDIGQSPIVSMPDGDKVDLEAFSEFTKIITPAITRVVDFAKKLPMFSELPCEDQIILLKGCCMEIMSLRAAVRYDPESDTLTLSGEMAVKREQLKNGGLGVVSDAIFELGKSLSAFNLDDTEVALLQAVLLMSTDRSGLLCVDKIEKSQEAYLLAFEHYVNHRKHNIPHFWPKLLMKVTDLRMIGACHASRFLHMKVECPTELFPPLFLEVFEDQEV
T4 sequence (P19793 1-462 partner): T1 sequence (P19793 1-462 partner)
Procedure, shortened: as §1

| Structure (SMILES) | Emax (THR beta) [%] | EC50 (THR beta) [nM] | EC50 [1] [nM] | Emax [1] [%] | EC50 [2] [nM] | Emax [2] [%] | Emax (THR alpha) [%] | EC50 (THR alpha) [nM] |
| --- | --- | --- | --- | --- | --- | --- | --- | --- |
| CO[C@H]1C[C@H](c2cc(Oc3c(Cl)cc(-n4nc(N)c(=O)[nH]c4=O)cc3Cl)n[nH]c2=O)C1 [Compound 102] | < 50 | 1000 to 10000 | 1000 to 25000 | < 50 | 1000 to 25000 | < 50 | < 50 | > 10000 |
| CO[C@H]1C[C@@H](c2cc(Oc3c(Cl)cc(-n4nc(N)c(=O)[nH]c4=O)cc3Cl)n[nH]c2=O)C1 [Compound 103] | < 50 | 1000 to 10000 | 1000 to 25000 | < 50 | > 25000 | < 50 | < 50 | > 10000 |
| N#CC1CCC1c1cc(Oc2c(Cl)cc(-n3nc(N)c(=O)[nH]c3=O)cc2Cl)n[nH]c1=O (stereo not shown) [Compound 104] | 50 to 75 | 1000 to 10000 | 250 to 1000 | < 50 | 1000 to 25000 | 50 to 75 | < 50 | > 10000 |
| Nc1nn(-c2cc(Cl)c(Oc3cc(C4CC(F)(F)C4)c(=O)[nH]n3)c(Cl)c2)c(=O)[nH]c1=O [Compound 106] | 50 to 75 | 1000 to 10000 | 250 to 1000 | < 50 | 1000 to 25000 | < 50 | < 50 | 1000 to 10000 |
| Nc1nn(-c2cc(Cl)c(Oc3cc(C4(c5ccccc5)CC4)c(=O)[nH]n3)c(Cl)c2)c(=O)[nH]c1=O [Compound 107] | 50 to 75 | 50 to 250 | < 50 | < 50 | 1000 to 25000 | < 50 | < 50 | 250 to 1000 |
| Cc1ccc(-c2cc(=O)[nH]nc2Oc2c(Cl)cc(-n3nc(N)c(=O)[nH]c3=O)cc2Cl)cc1C [Compound 113] | < 50 | 250 to 1000 | 50 to 250 | < 50 | 250 to 1000 | < 50 | < 50 | > 10000 |
| Cc1cc(-c2cc(Oc3c(Cl)cc(-n4nc(N)c(=O)[nH]c4=O)cc3Cl)n[nH]c2=O)ccc1Cl [Compound 116] | < 50 | 50 to 250 | 50 to 250 | < 50 | > 25000 | < 50 | < 50 | > 10000 |
| Nc1nn(-c2cc(Cl)c(Oc3cc(-c4cccc(OC(F)F)c4)c(=O)[nH]n3)c(Cl)c2)c(=O)[nH]c1=O [Compound 118] | 50 to 75 | < 50 | < 50 | 50 to 75 | 50 to 250 | < 50 | 50 to 75 | 50 to 250 |
| Nc1nn(-c2cc(Cl)c(Oc3cc(-c4ccc5ncccc5c4)c(=O)[nH]n3)c(Cl)c2)c(=O)[nH]c1=O [Compound 128] | < 50 | > 10000 | > 25000 | < 50 | > 25000 | < 50 | < 50 | > 10000 |
| Nc1nn(-c2cc(Cl)c(Oc3n[nH]c(=O)cc3-c3cc4ccccc4cn3)c(Cl)c2)c(=O)[nH]c1=O [Compound 134] | 50 to 75 | 250 to 1000 | < 50 | < 50 | 250 to 1000 | < 50 | < 50 | > 10000 |
| Cc1cccc(-c2cc(Oc3c(Cl)cc(-n4ncc(=O)[nH]c4=O)cc3Cl)n[nH]c2=O)c1 [Compound 139] | 50 to 75 | < 50 | 50 to 250 | < 50 | 50 to 250 | < 50 | < 50 | 50 to 250 |
| Nc1nn(-c2cc(Cl)c(Oc3ccc4c(c3)C3(CC3)C(=O)N4)c(Cl)c2)c(=O)[nH]c1=O [Compound 143] | > 75 | < 50 | < 50 | 50 to 75 | < 50 | > 75 | > 75 | < 50 |
| Nc1nn(-c2cc(Cl)c(Oc3cc(C4(F)CCCC4)c(=O)[nH]n3)c(Cl)c2)c(=O)[nH]c1=O [Compound 144, 6-amino-2-(3,5-dichloro-4-[[5-(1-fluorocyclopentyl)-6-oxo-1H-pyridazin-3-yl]oxy]phenyl)-4H-1,2,4-triazine-3,5-dione] | 50 to 75 | 250 to 1000 | 50 to 250 | < 50 | 250 to 1000 | < 50 | 50 to 75 | 1000 to 10000 |
| CC(C)/C=C1\C(=O)Nc2ccc(Oc3c(Cl)cc(-n4nc(N)c(=O)[nH]c4=O)cc3Cl)cc21 [Compound 147, 6-amino-2-[3,5-dichloro-4-[(3Z)-3-(2-methylpropylidene)-2-oxo-indolin-5-yl]oxy-phenyl]-1,2,4-triazine-3,5-dione] | > 75 | < 50 | < 50 | 50 to 75 | < 50 | < 50 | > 75 | < 50 |
| Cc1cc(-n2nc(N)c(=O)[nH]c2=O)cc(C)c1Cc1ccc2[nH]c(=O)n(C(C)C)c2c1 [Compound 149, 6-amino-2-(4-((3-isopropyl-2-oxo-2,3-dihydro-1H-benzo[d]imidazol-5-yl)methyl)-3,5-dimethylphenyl)-1,2,4-triazine-3,5(2H,4H)-dione] | > 75 | < 50 | < 50 | < 50 | < 50 | < 50 | > 75 | < 50 |
| Cc1cc(-n2nc(N)c(=O)[nH]c2=O)cc(C)c1Cc1ccc2c(c1)C1(CCCC1)C(=O)N2 [Compound 150, 6-Amino-2-(3,5-dimethyl-4-((2′-oxospiro[cyclopentane-1,3′-indolin]-5′-yl)methyl)phenyl)-1,2,4-triazine-3,5(2H,4H)-dione] | 50 to 75 | < 50 | < 50 | < 50 | < 50 | < 50 | 50 to 75 | < 50 |
| Cc1cc(-n2ncc(=O)[nH]c2=O)cc(C)c1Cc1ccc2c(c1)C1(CC1)C(=O)N2 [Compound 152, 2-(3,5-dimethyl-4-((2′-oxospiro[cyclopropane-1,3′-indolin]-5′-yl)methyl)phenyl)-1,2,4-triazine-3,5(2H,4H)-dione] | 50 to 75 | < 50 | < 50 | < 50 | < 50 | 50 to 75 | 50 to 75 | < 50 |
